Test results as given in patent publication US10602680B2, “Method of internal seed disinfection by combining seed priming with vacuum infiltration” (priority 2014, dated 2020).

Experiments:
[1] = test system: Acidovorax avenae subsp. citrulli; test: 10 minute soak of externally infected diploid watermelon seeds in antibiotic solutions; type: in vivo
Description: The effectiveness of using an antibiotic solution combined with matrix priming for disinfecting triploid watermelon seeds internally infected with Acidovorax avenae subsp. citrulli has been tested. In order to screen for effective antibiotics, diploid watermelon seeds were obtained which were externally infected with Acidovorax avenae subsp. citrulli. […] Infected seeds were soaked for 10 minutes in antibiotic solutions of 100 ppm, 250 ppm, and 500 ppm of the above antibiotics. Dosage was chosen based on information reported by Layne Wade (21st Annual Tomato Disease Workshop, Asheville, N.C., November 2006) which stated that the MIC (minimum inhibitory concentration) of Kasugamycin on Acidovorax avenae subsp. citrulli is greater than 100 ppm.

[2] = test system: Acidovorax avenae subsp. citrulli; test: 30 minute soak of infected diploid watermelon seeds, screening against the target disease; type: in vivo
From the text: Substances with suitable levels of phytotoxicity are then screened for their affectivity against target diseases. For an example, the inventors screened the antibiotic piperacillin/tazobactam, and electrolyzed water for its affectivity against Acidovorax avenae subsp. citrulli on diploid watermelons seeds. […] This serves only as an example, and any method of screening can be used either in vivo or in vitro to screen for affectivity against target diseases and appropriate dose.

[3] = test system: Xanthomonas campestris pv. Campestris; test: Osmotic priming with PEG followed by vacuum infiltration of infected broccoli seeds: presence of disease; type: in vivo; conditions: osmotic priming for 4 days followed by 6 hours of vacuum infiltration with 500 ppm
Description: Determination of proper length of priming treatment and vacuum filtration treatment are performed on an empirical basis. For an example, the inventors identified proper treatment length in the following manner. A lot of broccoli seeds infected with Xanthomonas campestris pv. Campestris were treated with the following treatment regiments. […] Seeds were tested after treatments for both germination and presence of the disease Xanthomonas campestris pv. Campestris.

[4] = test system: triploid watermelon seeds; test: Phytotoxicity screening by vacuum infiltration followed by matrix priming
Description: Step 110 involves choosing which species of seed will be sought to be disinfected. […] Thus, in step 130, a phytotoxicty screening is carried out on the chosen seeds using the chosen treatment. […] For example, the inventors screened the antibiotic Oxytetracycline using the method of adding chemicals to the water used in matrix priming (Eastin, J. A., 2000, U.S. Pat. No. 6,076,301) and the method of the present invention. Water containing 500 ppm of Oxytetracycline was used to prime triploid watermelon seeds using matrix priming. Further, the same seed was treated with vacuum infiltration using 500 ppm Oxytetracycline solutions for 6 hours, which was followed by a matrix priming using water. For a control, seed of the same lot was treated using vacuum infiltration with water, followed by matrix priming using water. Also, untreated seeds were preserved as an additional control.

[5] = test system: Acidovorax avenae subsp. citrulli; conditions: 1% solution, soak for 15 minutes; cited from earlier work
[6] = test system: Acidovorax avenae subsp. citrulli; conditions: on Acidovorax avenae subsp. citrulli; reported by Layne Wade, 2006; cited from earlier work
[7] = further screening using the same format, concentrations not given

Molecule	elimination of bacteria on seeds ([1]; 250 ppm)	elimination of bacteria on seeds ([1]; 500 ppm)	phytotoxicity ([4]; in vivo)	also measured
Piperacillin/tazobactam	effective	effective		elimination of the bacteria ([2]; 100 ppm): not effective; elimination of the bacteria ([2]; 250 ppm): effective; eradication of seed borne disease [3]: eradicated
O=C(N[C@H](CO)[C@H](O)c1ccc([N+](=O)[O-])cc1)C(Cl)Cl [Chloramphenicol]	effective	effective	phytotoxic	
Colistin sulphate	effective	effective		phytotoxicity [4, 7]: mild phytotoxic effects
Trimethoprim-sulfamethoxazole	effective	effective		
[Ca+2].[O-]Cl.[O-]Cl [calcium hypochlorite]				elimination from watermelon seeds [5]: not effective
O=P([O-])([O-])[O-].[Na+].[Na+].[Na+] [trisodium phosphate]				phytotoxicity [4, 7]: phytotoxic
CO/N=C(\C(=O)N[C@@H]1C(=O)N2C(C(=O)O)=C(CSc3nc(=O)c(=O)[nH]n3C)CS[C@H]12)c1csc(N)n1 [Ceftriaxone sodium]			no phytotoxic effects	elimination of bacteria on seeds ([1]; any dose (100 ppm, 250 ppm, 500 ppm)): not effective
C[C@H]1O[C@H](O[C@H]2[C@H](O)[C@@H](O)[C@@H](O)[C@H](O)[C@@H]2O)[C@@H](N)C[C@@H]1NC(=N)C(=O)O [Kasugamycin]	effective	effective		MIC (minimum inhibitory concentration) [6]: greater than 100 ppm
CCn1cc(C(=O)O)c(=O)c2cc3c(cc21)OCO3 [Oxalinic acid]	effective	effective	phytotoxic	
